We go through four compounds from ChEMBL document CHEMBL1122460, “Preparation of some 10-[3-(dimethylamino)-1-propyl]-10H-pyrazino[2,3-b][1,4] benzothiazines as potential neuroleptics” (J Med Chem, 1983).

Assay type in all cases: protein assay
Experiment [1] has as its target Dopamine receptor. In words: Tested for displacement of rat caudate dopamine receptors by using [3H]spiperone as radioligand.
Experiment [2] has as its target Dopamine receptor. The experiment in a line: Tested for displacement of rat striatal dopamine receptors by using [3H]apomorphine as radioligand.
In experiment [3] the target is Dopamine receptor. In words: Tested for displacement of rat caudate dopamine receptors by using [3H]apomorphine as radioligand.

Take `Cc1cnc2c(n1)N(CCCN(C)C)c1ccccc1S2`: the IC50 at Dopamine receptor [1] worked out at 0.382 µM; on Dopamine receptor [2] it was 0.103 µM.
`CN(C)CCCN1c2ccccc2Sc2nc(Cl)cnc21`: the results for the half-inhibitory concentration (IC50) at Dopamine receptor [3] and on Dopamine receptor [1] were 1.222 µM and 0.553 µM, respectively.
Turning to `CN(C)CCCN1c2cc(Cl)ccc2Sc2nccnc21`, the values for the IC50 on Dopamine receptor [1] and on Dopamine receptor [2] were 9.166 µM and 5.968 µM, respectively.
Consider `CN(C)CCCN1c2ccccc2Sc2ncc(Cl)nc21`, for which the values for the IC50 on Dopamine receptor [3] and at Dopamine receptor [1] were 0.0673 µM and 0.0621 µM, respectively.
